Assay results published in patent US20230077199A1, “PALMITOYL TETRAPEPTIDE-20 CONJUGATED NANOSILVER PARTICLE AND USE THEREOF” (priority 2021, published 2023).

System: B16F10 cells
Assay: Measurement of melanin production
Assay type: cell-based, murine
Settings: B16F10, 200 nM, single treatment
Experimental: B16F10 are seeded in 24-well plates at the density of 8×10^4 cells/well and incubated for 24 hours at 37° C. with 5% CO2 atmosphere. After removing the used cell medium, the cells are treated with fresh cell culture medium (control group), 200 nM α-MSH (α-MSH group), combination of 200 nM α-MSH and various concentrations of palmitoyl tetrapeptide-20 conjugated nanosilver particle (α-MSH+sample group), and various concentrations of palmitoyl tetrapeptide-20 conjugated nanosilver particle (sample group), for 24 hours. After treatment, the treated solution in the well is removed with further incubation with fresh cell culture medium for 24 hours.
The cells are washed twice with PBS. The cells are transferred into a 1.5 mL microtube and centrifuged at 10,000 rpm for 5 minutes to obtain cell pellets. Add 100 μL of solution (1 N NaOH containing 10% DMSO) to the pellet for 60 minutes at 80° C. to dissolve intracellular melanin. Extract 80 μL of dissolved melanin and place in 96-well plates, and melanin contents of control group and treatment group are determined by measuring the absorbance at 405 nm. The assay is repeated for three independent experiments. The equation for calculating melanin content is described as following: Total melanin content (%)=(A405 nm treatment group/A405 nm control group)×100%.

In the case of “α-melanocyte stimulating hormone [α-MSH]”, the “induction of melanin synthesis” value was “effectively induce melanin synthesis”.
